Reference: US10494360B2, “Inhibitors of indoleamine 2,3-dioxygenase” (NETHERLANDS TRANSLATIONAL RESEARCH CENTER B.V., priority 2016, dated 2019)
Where “and” joins values, the source holds several entries; their conditions need not be identical. Equal values may be shown once.

Key:
IDO1 [1] = molecular target: T1, IDO1 (Homo sapiens, UniProt P14902); test: Cell-based assay for IDO1 in interferon-γ stimulated A-375 melanoma cells; settings: interferon-γ stimulation, 48 hours, read-out: IC50, cell-based IDO1 (NFK levels)
T1 sequence (P14902 whole entry, species assumed): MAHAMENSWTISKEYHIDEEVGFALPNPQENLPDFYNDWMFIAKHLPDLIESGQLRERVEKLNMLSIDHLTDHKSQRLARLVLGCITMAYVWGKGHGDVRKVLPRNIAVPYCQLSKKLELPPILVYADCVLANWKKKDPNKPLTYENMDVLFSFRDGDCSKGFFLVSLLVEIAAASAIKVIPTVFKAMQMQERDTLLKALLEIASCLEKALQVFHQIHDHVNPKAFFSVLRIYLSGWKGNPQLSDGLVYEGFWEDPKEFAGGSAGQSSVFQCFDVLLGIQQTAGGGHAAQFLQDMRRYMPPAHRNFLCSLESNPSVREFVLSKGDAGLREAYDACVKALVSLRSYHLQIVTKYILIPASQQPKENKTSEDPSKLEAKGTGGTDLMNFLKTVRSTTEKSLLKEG
Procedure: The biological activity of IDO1 inhibitors can be measured by applying above detection methods to cells that are treated with test compound. The expression of IDO1 can be induced in many different cell lines by stimulation with IFNγ (Takikawa, O., et al., J. Biol. Chem. 263: 2041; 1988; Seegers, et al.), or IDO1 can be expressed in cells that lack endogenous IDO1 by transfection of an expression vector containing IDO1 cDNA.
A-375 melanoma cells were purchased from LGC Standards GmbH (Wesel, Germany) and cultured in DMEM tissue culture medium (Life Technologies, Bleiswijk, The Netherlands), supplemented with 10% (v/v) bovine calf serum. Compounds were dissolved in DMSO and diluted in DMEM. Final DMSO concentration in the assay was 0.4% (v/v). Eight thousand cells per well in 35 μl were seeded in a black 384-well tissue plate (cat. No. 781086; Greiner Bio-One GmbH, Frickenhausen, Germany) and allowed to adhere by incubation at 37° C., 95% humidity, and 5% CO2 overnight. Then, 5 μl of compound solution was added to the cells 1 hour prior to stimulation with 5 μl of 500 ng/ml interferon-γ (R&D Systems, Minneapolis, Minn., USA) diluted in DMEM medium. At the same time, 5 μl of L-tryptophan in 20 mM Hepes buffer pH 7.4 was added. Incubation was continued for 48 hours. To determine NFK levels, 12 μl NFK Green™ (NTRC, Oss, The Netherlands) was added to each well, and the plate was sealed and incubated for 4 hours at 37° C. Fluorescence was measured on an EnVision multimode reader (Perkin Elmer, Waltham, Mass., USA). IC50 were calculated using XLfit™ software (ID Business Solutions, Ltd., Surrey, U.K.).

IDO1 [2] = molecular target: T1, IDO1; test: Biochemical IDO1 assay (NFK GreenScreen); design: Recombinant full-length IDO1 (Seegers, N., et al.) and all other assay components were diluted in IDO1 reaction buffer; made in house; settings: recombinant full-length IDO1 25 nM, L-tryptophan 100 μM, NFK Green detection; read-out: IC50, inhibitory potency on IDO1
In short: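 Recombinant full-length IDO1 in 50 mM NaH2PO4 pH 7.0 with 0.05% Tween-20 and 1% glycerol converted 100 μM L-tryptophan (final) over 60 min at room temperature with compound, 0.3% DMSO.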

Row | Structure (SMILES) | IC50 (IDO1 [1]) [µM] | IC50 (IDO1 [2])
1 | CC(C)C#Cc1cc(F)c(C(=O)N2CC(=O)N(O)C2c2cccc(Br)c2)c(F)c1 (stereo not drawn) [Example 107, 2-(3-Bromophenyl)-1-[2,6-difluoro-4-(3-methylbut-1-ynyl)benzoyl]-3-hydroxy-imidazolidin-4-one] | < 5 | ≤ 1000 nM
2 | O=C1CN(C(=O)c2ccncc2F)C(c2cccc(Br)c2)N1O (stereo not drawn) [Example 86, 2-(3-Bromophenyl)-1-(3-fluoropyridine-4-carbonyl)-3-hydroxy-imidazolidin-4-one] | < 5 | ≤ 1000 nM
3 | O=C1CN(C(=O)c2c(F)cc(C#CC3CCCCC3)cc2F)C(c2cccc(Br)c2)N1O (stereo not drawn) [Example 108, 2-(3-Bromophenyl)-1-[4-(2-cyclohexylethynyl)-2,6-difluoro-benzoyl]-3-hydroxy-imidazolidin-4-one] | < 5 | ≤ 1000 nM
4 | O=C1CN(C(=O)c2ccccc2F)C(c2ccc(F)c(Cl)c2)N1O (stereo not drawn) [Example 51, 2-(3-Chloro-4-fluoro-phenyl)-1-(2-fluorobenzoyl)-3-hydroxy-imidazolidin-4-one] | < 5 | ≤ 1000 nM
5 | O=C1CN(C(=O)c2ccccc2)C(c2cccc(Br)c2)N1O (stereo not drawn) [Example 17, 1-Benzoyl-2-(3-bromophenyl)-3-hydroxy-imidazolidin-4-one] | < 5 | ≤ 5000 nM and 1000 to 5000 nM
6 | O=C1CN(C(=O)c2c(F)cccc2F)C(c2ccc(F)c(Cl)c2)N1O (stereo not drawn) [Example 52, 2-(3-Chloro-4-fluoro-phenyl)-1-(2,6-difluorobenzoyl)-3-hydroxy-imidazolidin-4-one] | < 5 | ≤ 1000 nM
7 | O=C1CN(C(=O)c2c(F)cc(-c3ccncc3)cc2F)C(c2cccc(Br)c2)N1O (stereo not drawn) [Example 118, 2-(3-Bromophenyl)-1-[2,6-difluoro-4-(4-pyridyl)benzoyl]-3-hydroxy-imidazolidin-4-one] | < 5 | ≤ 1000 nM

Now from value to molecule:

Row | IC50 (IDO1 [1]) [µM] | IC50 (IDO1 [2]) | Structure (SMILES)
8 | < 5 | ≤ 1000 nM | O=C1CN(C(=O)c2ccccc2Cl)C(c2cccc(Br)c2)N1O (stereo not drawn) [Example 34, 2-(3-Bromophenyl)-1-(2-chlorobenzoyl)-3-hydroxy-imidazolidin-4-one]
9 | < 5 | ≤ 1000 nM | COCCNC(=O)c1c(Br)cc(F)c(C(=O)N2CC(=O)N(O)C2c2cccc(Br)c2)c1F (stereo not drawn) [Example 138, 6-Bromo-3-[2-(3-bromophenyl)-3-hydroxy-4-oxo-imidazolidine-1-carbonyl]-2,4-difluoro-N-(2-methoxyethyl)benzamide]
10 | < 5 | ≤ 1000 nM | O=C1CN(C(=O)c2cccnc2F)C(c2cccc(Br)c2)N1O (stereo not drawn) [Example 87, 2-(3-Bromophenyl)-1-(2-fluoropyridine-3-carbonyl)-3-hydroxy-imidazolidin-4-one]
11 | < 5 | ≤ 1000 nM | O=C1CN(C(=O)c2c(F)cccc2Cl)C(c2cccc(C(F)(F)F)c2)N1O (stereo not drawn) [Example 3, 1-(2-Chloro-6-fluoro-benzoyl)-3-hydroxy-2-[3-(trifluoromethyl)phenyl]imidazolidin-4-one]
12 | < 5 | ≤ 1000 nM | O=C1CN(C(=O)c2c(F)cccc2Cl)C(c2cccc(Br)c2)N1O (stereo not drawn) [Example 32, 2-(3-Bromophenyl)-1-(2-chloro-6-fluoro-benzoyl)-3-hydroxy-imidazolidin-4-one]
13 | < 5 | ≤ 1000 nM | C=Cc1cccc(C2N(O)C(=O)CN2C(=O)c2c(F)cccc2F)c1 (stereo not drawn) [Example 129, 1-(2,6-Difluorobenzoyl)-3-hydroxy-2-(3-vinylphenyl)imidazolidin-4-one]
14 | < 5 | ≤ 1000 nM | O=C1CN(C(=O)c2c(F)cccc2F)C(c2cccc(C(F)(F)F)c2)N1O (stereo not drawn) [Example 4, 1-(2,6-Difluorobenzoyl)-3-hydroxy-2-[3-(trifluoromethyl)phenyl]imidazolidin-4-one]
15 | < 5 | ≤ 1000 nM | O=C1CN(C(=O)c2ccccc2F)C(c2cccc(I)c2)N1O (stereo not drawn) [Example 73, 1-(2-Fluorobenzoyl)-3-hydroxy-2-(3-iodophenyl)imidazolidin-4-one]
